In general, IC50 refers to the midpoint of a concentration-inhibition curve.

The values below come from patent US20230279025A1, “KRAS G12D INHIBITORS” (Mirati Therapeutics, Inc., priority 2020, published 2023).

For this assay, the target named is KRas G12D (Homo sapiens (Human), UniProt P01116, G12D). The experiment in a line: KRas G12D Binding Assay (TR-FRET displacement of Cy5 labelled tracer). Conditions: GDP-loaded KRAS G12D (amino acids 1:169), 60 minute incubation at 22° C. The method, then: After a 60 minute incubation at 22° C., the reaction was measured using a PerkinElmer EnVision multimode plate reader via TR-FRET dual wavelength detection, and the percent of control (POC) calculated using a ratiometric emission factor. […] The POC values were fit to a 4-parameter logistic curve and the IC50 value was determined as the concentration where the curve crosses 50 POC.
ND stands for “not determined.”

KRas G12D, sequence (P01116 other isoform, or with tags, fused parts or gaps G12D): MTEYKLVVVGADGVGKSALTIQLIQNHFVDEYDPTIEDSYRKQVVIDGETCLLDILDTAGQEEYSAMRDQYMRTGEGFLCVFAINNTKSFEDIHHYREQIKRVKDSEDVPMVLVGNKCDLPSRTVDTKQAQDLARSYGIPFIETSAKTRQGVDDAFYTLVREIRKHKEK

Regarding `CN(C)Cc1ccc(COCCNC(=O)O[C@@H]2C[C@@H](COc3nc(N4C[C@H]5CC[C@@H](C4)N5)c4cnc(-c5cccc6cccc(Cl)c56)c(F)c4n3)N(C)C2)cc1` [Example 308, (3R,5S)-5-(((4-((1R,5S)-3,8-diazabicyclo[3.2.1]octan-3-yl)-7-(8-chloronaphthalen-1-yl)-8-fluoropyrido[4,3-d]pyrimidin-2-yl)oxy)methyl)-1-methylpyrrolidin-3-yl (2-((4-((dimethylamino)methyl)benzyl)oxy)ethyl)carbamate], the concentration for half-maximal inhibition (IC50) is 117 nM.

The compound `CC(C)c1ccccc1-c1ncc2c(N3C[C@H]4CC[C@@H](C3)N4)nc(OCC34CCCN3CCC4)nc2c1F` [Example 309, 4-((1R,5S)-3,8-diazabicyclo[3.2.1]octan-3-yl)-8-fluoro-7-(2-isopropylphenyl)-2-((tetrahydro-1H-pyrrolizin-7a(5H)-yl)methoxy)pyrido[4,3-d]pyrimidine] registered an IC50 of 205 nM.

Consider `Fc1c(-c2ccccc2Cl)ncc2c(N3C[C@H]4CC[C@@H](C3)N4)nc(OCC34CCCN3CCC4)nc12` [Example 310, 4-((1R,5S)-3,8-diazabicyclo[3.2.1]octan-3-yl)-7-(2-chlorophenyl)-8-fluoro-2-((hexahydro-1H-pyrrolizin-7a-yl)methoxy)pyrido[4,3-d]pyrimidine], for which the 50% inhibitory concentration (IC50) is 559 nM.

As for `COc1c(Cl)cccc1-c1ncc2c(N3C[C@H]4CC[C@@H](C3)N4)nc(OCC34CCCN3CCC4)nc2c1F` [Example 311, 4-((1R,5S)-3,8-diazabicyclo[3.2.1]octan-3-yl)-7-(3-chloro-2-methoxyphenyl)-8-fluoro-2-((hexahydro-1H-pyrrolizin-7a-yl)methoxy)pyrido[4,3-d]pyrimidine], the IC50 came to 135 nM.

In turn, `CCc1c(Cl)cccc1-c1ncc2c(N3C[C@H]4CC[C@@H](C3)N4)nc(OCC34CCCN3CCC4)nc2c1F` [Example 312, 4-((1R,5S)-3,8-diazabicyclo[3.2.1]octan-3-yl)-7-(3-chloro-2-ethylphenyl)-8-fluoro-2-((hexahydro-1H-pyrrolizin-7a-yl)methoxy)pyrido[4,3-d]pyrimidine] yielded a concentration for half-maximal inhibition (IC50) of 9 nM.

Regarding `COc1c(C)cccc1-c1ncc2c(N3C[C@H]4CC[C@@H](C3)N4)nc(OCC34CCCN3CCC4)nc2c1F` [Example 313, 4-((1R,5S)-3,8-diazabicyclo[3.2.1]octan-3-yl)-8-fluoro-2-((hexahydro-1H-pyrrolizin-7a-yl)methoxy)-7-(2-methoxy-3-methylphenyl)pyrido[4,3-d]pyrimidine], the IC50 was determined as 231 nM.

`CCc1c(F)ccc2cc(O)cc(-c3ncc4c(N5C[C@H]6CC[C@@H](C5)N6)nc(OCC56CCCN5CCC6)nc4c3F)c12` [Example 314, 4-(4-((1R,5S)-3,8-diazabicyclo[3.2.1]octan-3-yl)-8-fluoro-2-((hexahydro-1H-pyrrolizin-7a-yl)methoxy)pyrido[4,3-d]pyrimidin-7-yl)-5-ethyl-6-fluoronaphthalen-2-ol]: the IC50 was determined as 0.6 nM.

With `OCCc1ccccc1-c1ncc2c(N3C[C@H]4CC[C@@H](C3)N4)nc(OCC34CCCN3CCC4)nc2c1F` [Example 315, 2-(2-(4-((1R,5S)-3,8-diazabicyclo[3.2.1]octan-3-yl)-8-fluoro-2-((hexahydro-1H-pyrrolizin-7a-yl)methoxy)pyrido[4,3-d]pyrimidin-7-yl)phenyl)ethanol], the IC50 turned out to be 2540 nM.

For the compound `Cc1ccc2cccc(-c3ncc4c(N5C[C@H]6CC[C@@H](C5)N6)nc(OC[C@@H]5CCCN5C)nc4c3F)c2c1` [Example 321, 4-((1R,5S)-3,8-diazabicyclo[3.2.1]octan-3-yl)-8-fluoro-7-(7-methylnaphthalen-1-yl)-2-(((S)-1-methylpyrrolidin-2-yl)methoxy)pyrido[4,3-d]pyrimidine], the 50% inhibitory concentration (IC50) was 613 nM.

Take `Fc1c(-c2cccc(Cl)c2C2CC2)ncc2c(N3C[C@H]4CC[C@@H](C3)N4)nc(OCC34CCCN3CCC4)nc12` [Example 322, 4-((1R,5S)-3,8-diazabicyclo[3.2.1]octan-3-yl)-7-(3-chloro-2-cyclopropylphenyl)-8-fluoro-2-((tetrahydro-1H-pyrrolizin-7a(5H)-yl)methoxy)pyrido[4,3-d]pyrimidine]: the IC50 was 4.9 nM.

For the compound `CN1CCCC1(CO)COc1nc(N2C[C@H]3CC[C@@H](C2)N3)c2cnc(-c3cccc4ccccc34)c(F)c2n1` (stereo partly drawn) [Example 323, (2-(((4-((1R,5S)-3,8-diazabicyclo[3.2.1]octan-3-yl)-8-fluoro-7-(naphthalen-1-yl)pyrido[4,3-d]pyrimidin-2-yl)oxy)methyl)-1-methylpyrrolidin-2-yl)methanol], the IC50 amounted to 1690 nM.

For the compound `Fc1c(-c2cccc(Cl)c2C(F)(F)F)ncc2c(N3C[C@H]4CC[C@@H](C3)N4)nc(OCC34CCCN3CCC4)nc12` [Example 328, 4-((1R,5S)-3,8-diazabicyclo[3.2.1]octan-3-yl)-7-(3-chloro-2-(trifluoromethyl)phenyl)-8-fluoro-2-((tetrahydro-1H-pyrrolizin-7a(5H)-yl)methoxy)pyrido[4,3-d]pyrimidine], the IC50 was found to be 9.4 nM.

In turn, `CSc1ccccc1-c1ncc2c(N3C[C@H]4CC[C@@H](C3)N4)nc(OCC34CCCN3CCC4)nc2c1F` [Example 329, 4-((1R,5S)-3,8-diazabicyclo[3.2.1]octan-3-yl)-8-fluoro-7-(2-(methylthio)phenyl)-2-((tetrahydro-1H-pyrrolizin-7a(5H)-yl)methoxy)pyrido[4,3-d]pyrimidine] displayed an IC50 of 202 nM.

Regarding `Cc1ccc2[nH]ncc2c1-c1ncc2c(N3C[C@H]4CC[C@@H](C3)N4)nc(OCC34CCCN3CCC4)nc2c1F` [Example 332, 4-((1R,5S)-3,8-diazabicyclo[3.2.1]octan-3-yl)-8-fluoro-7-(5-methyl-1H-indazol-4-yl)-2-((tetrahydro-1H-pyrrolizin-7a(5H)-yl)methoxy)pyrido[4,3-d]pyrimidine], the IC50 stood at 164 nM. The IC50 values of the last two compounds are within 1.5-fold of each other.

With `Cc1cccc2cccc(-c3ncc4c(N5C[C@H]6CC[C@@H](C5)N6)nc(OCC56CCCN5CCC6)nc4c3F)c12` [Example 334, 4-((1R,5S)-3,8-diazabicyclo[3.2.1]octan-3-yl)-8-fluoro-7-(8-methylnaphthalen-1-yl)-2-((tetrahydro-1H-pyrrolizin-7a(5H)-yl)methoxy)pyrido[4,3-d]pyrimidine], the IC50 is 10 nM. This IC50 lies about 16-fold lower than the previous one.

Compound `Fc1c(-c2cccc3cccc(C4CC4)c23)ncc2c(N3C[C@H]4CC[C@@H](C3)N4)nc(OCC34CCCN3CCC4)nc12` [Example 335, 4-((1R,5S)-3,8-diazabicyclo[3.2.1]octan-3-yl)-7-(8-cyclopropylnaphthalen-1-yl)-8-fluoro-2-((tetrahydro-1H-pyrrolizin-7a(5H)-yl)methoxy)pyrido[4,3-d]pyrimidine] showed an IC50 of 25.8 nM.

The compound `CN1CCC[C@H]1COc1nc(N2CC3CCC(C2)N3)c2cnc(-c3c(Cl)c(O)cc4ccccc34)c(F)c2n1` [Example 337, 4-(4-(3,8-diazabicyclo[3.2.1]octan-3-yl)-8-fluoro-2-(((S)-1-methylpyrrolidin-2-yl)methoxy)pyrido[4,3-d]pyrimidin-7-yl)-3-chloronaphthalen-2-ol] had a half-maximal inhibitory concentration (IC50) of 2.2 nM.

For the compound `N#CC[C@@H]1C[C@@H]2CN(c3nc(OCC45CCCN4CCC5)nc4c(F)c(-c5cc(O)cc6ccccc56)ncc34)C[C@H]1N2` [Example 338, 2-((1R,5S,6S)-3-(8-fluoro-7-(3-hydroxynaphthalen-1-yl)-2-((tetrahydro-1H-pyrrolizin-7a(5H)-yl)methoxy)pyrido[4,3-d]pyrimidin-4-yl)-3,8-diazabicyclo[3.2.1]octan-6-yl)acetonitrile], the IC50 was found to be 33.1 nM.

With `Oc1ccc(OC(F)(F)F)c(-c2ncc3c(N4C[C@H]5CC[C@@H](C4)N5)nc(OCC45CCCN4CCC5)nc3c2F)c1` [Example 341, 3-(4-((1R,5S)-3,8-diazabicyclo[3.2.1]octan-3-yl)-8-fluoro-2-((tetrahydro-1H-pyrrolizin-7a(5H)-yl)methoxy)pyrido[4,3-d]pyrimidin-7-yl)-4-(trifluoromethoxy)phenol], the 50% inhibitory concentration (IC50) was found to be 0.7 nM.

Take `Fc1c(-c2c(C(F)(F)F)ccc3[nH]ncc23)ncc2c(N3C[C@H]4CC[C@@H](C3)N4)nc(OCC34CCCN3CCC4)nc12` [Example 344, 4-((1R,5S)-3,8-diazabicyclo[3.2.1]octan-3-yl)-8-fluoro-2-((tetrahydro-1H-pyrrolizin-7a(5H)-yl)methoxy)-7-(5-(trifluoromethyl)-1H-indazol-4-yl)pyrido[4,3-d]pyrimidine]: the IC50 stood at 10.9 nM.

With `Fc1c(-c2cccc3cccc(OC(F)(F)F)c23)ncc2c(N3C[C@H]4CC[C@@H](C3)N4)nc(OCC34CCCN3CCC4)nc12` [Example 345, 4-((1R,5S)-3,8-diazabicyclo[3.2.1]octan-3-yl)-8-fluoro-2-((tetrahydro-1H-pyrrolizin-7a(5H)-yl)methoxy)-7-(8-(trifluoromethoxy)naphthalen-1-yl)pyrido[4,3-d]pyrimidine], the IC50 stood at 10.6 nM.

For the compound `Fc1c(-c2cccc3cccc(OC(F)F)c23)ncc2c(N3C[C@H]4CC[C@@H](C3)N4)nc(OCC34CCCN3CCC4)nc12` [Example 346, 4-((1R,5S)-3,8-diazabicyclo[3.2.1]octan-3-yl)-7-(8-(difluoromethoxy)naphthalen-1-yl)-8-fluoro-2-((tetrahydro-1H-pyrrolizin-7a(5H)-yl)methoxy)pyrido[4,3-d]pyrimidine], the IC50 was 10.5 nM.

Compound `CC(C)c1ccccc1-c1ncc2c(N3CC4CCC(C3)N4)nc(OCC34CCCN3C[C@H](F)C4)nc2c1F` (stereo partly drawn) [Example 348, 4-((1R,5S)-3,8-diazabicyclo[3.2.1]octan-3-yl)-8-fluoro-2-((2-fluorotetrahydro-1H-pyrrolizin-7a(5H)-yl)methoxy)-7-(2-isopropylphenyl)pyrido[4,3-d]pyrimidine] yielded a concentration for half-maximal inhibition (IC50) of 15.5 nM. The IC50 values of the last two compounds are within 1.5-fold of each other.

`Fc1c(-c2c(Cl)ccc3ccccc23)ncc2c(N3C[C@H]4CC[C@@H](C3)N4)nc(OCC34CCCN3CCC4)nc12` [Example 349, 4-((1R,5S)-3,8-diazabicyclo[3.2.1]octan-3-yl)-7-(2-chloronaphthalen-1-yl)-8-fluoro-2-((tetrahydro-1H-pyrrolizin-7a(5H)-yl)methoxy)pyrido[4,3-d]pyrimidine] returned a concentration for half-maximal inhibition (IC50) of 561 nM. This IC50 is about 36-fold higher than that of the compound before.
